Values after ≈ are worked out from the molar mass of the structure shown. “Also recorded” adds a separate entry of the source.
Assays:
HeLa cells = experiment: Cytotoxicity of Alu RNA expression plasmid (pAluA), MTS proliferation assay; type: cell-based, human; settings: pAluA vs pUC19
Source text: Meanwhile, in certain embodiments, […] protects against cytotoxicity induced by plasmid expressing Alu RNA in vitro.

IRAK4 [1] = experiment: Alu RNA-induced IRAK4 phosphorylation, primary mouse RPE cells; type: cell-based
mice = experiment: Graft-versus-host disease model, mice receiving allogeneic bone marrow and T cells; type: in vivo, mouse; settings: vs. 0% in saline treated controls
Source text: To explore the potential therapeutic relevance of NRTIs beyond the Alu-induced model of geographic atrophy (GA), it was hypothesized that if NRTIs function as generic inflammasome inhibitors, then they might be broadly useful in other animal models of disease that are also driven by P2X7.

IL-1 beta [2] = experiment: MSU-induced IL-1 beta secretion from PMA-differentiated THP-1 monocytes, ELISA; type: cell-based, human; settings: 25-1000 uM
Source text: Human THP-1 monocytes were differentiated into macrophages with PMA.
To illustrate this, human THP-1 monocytes were differentiated into macrophages with PMA. Treatment with MSU increased IL-1 beta secretion compared to non-treated cells. […]

[3] = LogP, partition coefficient in 1-octanol; type: physicochemical; settings: 1-octanol partition
IL-1 beta [4] = experiment: LPS/ATP-induced IL-1 beta secretion, mouse bone marrow-derived macrophages; type: cell-based; settings: primary mouse bone marrow-derived macrophages
Source text: To determine whether LPS/ATP-induced inflammasome activation can be inhibited without RT inhibition, the present inventors utilized thymidine kinase-deficient (Raji/TK^−) and -expressing (Raji/TK^+) cells (Balzarini et al., 1989).

[5] = system: mitochondrial reactive oxygen species (mtROS); experiment: Mitochondrial ROS caused by Alu expression, MitoSox assay, primary human RPE cells; type: cell-based
Procedure: After 15 hours cells were co-stained for mtROS (red) and for cell count, nuclei (blue; Hoechst DNA stain).
In FIG. 54, mitochondrial reactive oxygen species (ROS) were visualized with MitoSox (Red) and cell nuclei with Hoechst (Blue).

Solubility in water = type: physicochemical; settings: aqueous buffer; Water pH 7.2 at 37° C.
Caspase-1 = experiment: iGLuc luminescence assay of ATP-induced Caspase-1 activation in J774 iGLuc cells; type: cell-based, mouse
Procedure: Caspase-1 is the enzyme at the core of the inflammasome complex and is an important danger response signal and mediator of RPE cell death in AMD. […] Importantly, there was some difference between individual compounds in terms of the dose response curve, emphasizing the need to test each compound (with unique R group(s)) individually.
To obtain the data set forth in FIGS. 64-73, an iGLuc assay was conducted (modified from Bartok et al. iGLuc: a luciferase-based inflammasome and protease activity reporter. Nature Methods 2013; 10(2):147-54). Briefly, 100,000 iGLuc cells per well were plated in a 96 well plate overnight. The next morning, media is aspirated from the plate and replaced with 75 μL of serum free DMEM with drugs (NRTIs or modified NRTIs) for 30 min. After 30 minutes of drug exposure, 20 mM ATP (25 μL) is added for a final concentration of 5 mM. 50 μL of media from each well is collected and 50 μL of coelenterazine 4.4 μM is added to each sample, and luminescence is read immediately.

IRAK4 [6] = experiment: Alu RNA-induced IRAK4 phosphorylation, primary human RPE cells
IL-18 = experiment: LPS/ATP-induced IL-18 maturation, mouse bone marrow-derived macrophages; type: cell-based; settings: 100 uM; cell culture supernatants
mouse P2X7 receptor = molecular target: T1, mouse P2X7 receptor (Mus musculus, UniProt Q9Z1M0); experiment: P2X7 cation channel function, patch clamp, HEK293 cells expressing mouse P2X7; type: cell-based; settings: mouse P2X7 in HEK293
T1 construct: expressed in transfected cells; host or cells: HEK293 cells

NLRP3 mRNA = experiment: NLRP3 priming (mRNA) induced by Alu RNA, primary human RPE cells; type: cell-based; settings: 100 uM; 16 hours; normalized to 18S RNA
Procedure: Indeed, as provided in the bar graph of FIG. 13, Alu RNA transfection increases NLRP3 mRNA levels in primary human RPE cells at 16 hours, an event termed “priming” (Y-axis) compared to mock (transfection reagent alone).

IL-1 beta mRNA = experiment: IL-1beta priming (mRNA) induced by Alu RNA, primary human RPE cells; type: cell-based; settings: 100 uM; 24 hours; normalized to 18S RNA
Procedure: FIG. 14 illustrates that Alu RNA transfection increases IL-1 beta mRNA levels in primary human RPE cells at 24 hours, an event termed “priming”, (Y-axis) compared to mock (transfection reagent alone).

T1 sequence (Q9Z1M0 whole entry): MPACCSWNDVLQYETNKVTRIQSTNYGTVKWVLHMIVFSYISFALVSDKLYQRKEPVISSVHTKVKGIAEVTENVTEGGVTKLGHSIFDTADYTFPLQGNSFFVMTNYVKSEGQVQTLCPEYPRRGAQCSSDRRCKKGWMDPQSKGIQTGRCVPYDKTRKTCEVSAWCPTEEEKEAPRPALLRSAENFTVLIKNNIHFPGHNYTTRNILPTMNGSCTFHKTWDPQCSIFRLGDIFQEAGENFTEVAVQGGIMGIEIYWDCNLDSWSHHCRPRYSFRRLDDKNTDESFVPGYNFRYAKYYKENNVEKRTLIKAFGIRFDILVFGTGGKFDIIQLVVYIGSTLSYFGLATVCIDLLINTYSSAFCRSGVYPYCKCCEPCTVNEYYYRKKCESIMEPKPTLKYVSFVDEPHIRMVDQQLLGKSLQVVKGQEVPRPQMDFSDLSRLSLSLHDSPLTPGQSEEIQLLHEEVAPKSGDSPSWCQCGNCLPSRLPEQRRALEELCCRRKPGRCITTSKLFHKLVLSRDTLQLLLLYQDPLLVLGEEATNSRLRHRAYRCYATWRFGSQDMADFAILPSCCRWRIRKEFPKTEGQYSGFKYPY

## Cc1cn([C@H]2C=C[C@@H](CO)O2)c(=O)[nH]c1=O [d4T, 2′3′ dideoxythymidine]
HeLa cells
  cell death induced by Alu overexpression (viability, MTS): prevented cell death
IRAK4 [1]
  IRAK4 phosphorylation induced by Alu RNA: blocks phosphorylation of IRAK4
mice
  survival: 30-70%
IL-1 beta [2]
  IL-1beta secretion induced by MSU: did not significantly affect IL-1beta secretion
[3]
  logP: -0.23
IL-1 beta [4]
  secretion of mature IL-1 beta upon LPS/ATP: blocks secretion of mature IL-1 beta
[5]
  mitochondrial ROS caused by Alu expression (pAluA): reduces mitochondrial ROS; also recorded: prevents pAlu-induced mitochondrial ROS generation
Solubility in water
  solubility: 106 mg/mL (≈ 473 mM)
Caspase-1; ATP 5 mM, drug 1 nM-100 μM, N=3
  Caspase-1 cleavage (luminescence): reduces Caspase-1 cleavage in a dose-dependent fashion
Caspase-1; ATP (5 mM), mouse J774 iGLuc cells, FIGS. 70-73
  reduction of inflammasome activation: about 35%
IRAK4 [6]
  IRAK4 phosphorylation induced by Alu RNA: blocks phosphorylation of IRAK4
IL-18
  IL-18 maturation induced by LPS/ATP: inhibit
Mouse P2X7 receptor
  P2X7 cation channel function: did not significantly modulate P2X7 cation channel function
NLRP3 mRNA
  NLRP3 mRNA levels (priming) induced by Alu RNA: reduces NLRP3 priming
IL-1 beta mRNA
  IL-1 beta mRNA levels (priming) induced by Alu RNA: reduces IL-1beta priming
